Tests used:
[1] = system: SARS-CoV-2 virus [B.1.351]; format: in vivo, mice; conditions: Hypericin 20 mg/kg alone, pre-treatment from two days prior to infection; day 4 post-infection
SARS-CoV-2 = experiment: CellTiter-Glo host cell viability assay of SARS-CoV-2-infected Vero E6 cells; format: cell-based; conditions: for host cell viability: hypericin 0 μM
Method: Vero E6 cells were seeded at 25,000 cells/well in 96-well plates and SARS-CoV-2 was added into the wells at a MOI of 0.01. After 1 hour, hypericin (Cayman Chemical, ≥95% purity) was added into the wells at final concentrations of 1.5625-100 μM or the vehicle only control (DMSO), followed by the addition of remdesivir (Novation Chemicals, 98% purity) at final concentrations of 0.3125-5 μM or the vehicle only control (DMSO), and incubated at 37° C.
After 72 hours of incubation, host cell viability was assessed using CellTiter-Glo® Luminescent Cell Viability Assay (Promega) according to the manufacturer's instructions. Results were normalized to the highest dose of remdesivir alone (5 μM) and are summarized below in Table 1.

| SMILES | mice in which all infectious titers were eliminated [1] | viability at 1.563 µM (SARS-CoV-2; Severe acute respiratory syndrome coronavirus 2, Vero C1008, hypericin 1.563 μM, remdesivir 0 μM, 72 h, normalized to remdesivir 5 μM alone) [%] | viability at 3.125 µM (SARS-CoV-2; Severe acute respiratory syndrome coronavirus 2, Vero C1008, hypericin 3.125 μM, remdesivir 0 μM, 72 h, normalized to remdesivir 5 μM alone) [%] | viability at 6.25 µM (SARS-CoV-2; Severe acute respiratory syndrome coronavirus 2, Vero C1008, hypericin 6.25 μM, remdesivir 0 μM, 72 h, normalized to remdesivir 5 μM alone) [%] | viability at 12.5 µM (SARS-CoV-2; Severe acute respiratory syndrome coronavirus 2, Vero C1008, hypericin 12.5 μM, remdesivir 0 μM, 72 h, normalized to remdesivir 5 μM alone) [%] | viability at 25 µM (SARS-CoV-2; Severe acute respiratory syndrome coronavirus 2, Vero C1008, hypericin 25 μM, remdesivir 0 μM, 72 h, normalized to remdesivir 5 μM alone) [%] | viability at 50 µM (SARS-CoV-2; Severe acute respiratory syndrome coronavirus 2, Vero C1008, hypericin 50 μM, remdesivir 0 μM, 72 h, normalized to remdesivir 5 μM alone) [%] | viability at 100 µM (SARS-CoV-2; Severe acute respiratory syndrome coronavirus 2, Vero C1008, hypericin 100 μM, remdesivir 0 μM, 72 h, normalized to remdesivir 5 μM alone) [%] | viability at 50 µM (SARS-CoV-2; Severe acute respiratory syndrome coronavirus 2, Vero C1008, hypericin alone (12.5-100 μM), up to, at 50 μM) [%] | effect on host cell viability in words (SARS-CoV-2; hypericin (25-50 μM) alone) | host cell viability (SARS-CoV-2; remdesivir 0.3125 μM, 72 h, normalized to remdesivir 5 μM alone) [%] | host cell viability (SARS-CoV-2; remdesivir 0.625 μM, 72 h, normalized to remdesivir 5 μM alone) [%] | host cell viability (SARS-CoV-2; remdesivir 1.25 μM, 72 h, normalized to remdesivir 5 μM alone) [%] | host cell viability (SARS-CoV-2; remdesivir 2.5 μM, 72 h, normalized to remdesivir 5 μM alone) [%] |
| --- | --- | --- | --- | --- | --- | --- | --- | --- | --- | --- | --- | --- | --- | --- |
| Cc1cc(O)c2c(=O)c3c(O)cc(O)c4c5c(O)cc(O)c6c(=O)c7c(O)cc(C)c8c1c2c(c34)c(c78)c65 [Hypericin] | 5 out of 7 | 14.6 | 12.9 | 12.8 | 20.4 | 62 | 62.6 | 38 | ≤ 62 | modest improvements in host cell viability |  |  |  |  |
| CCC(CC)COC(=O)[C@H](C)N[P@](=O)(OC[C@H]1O[C@@](C#N)(c2ccc3c(N)ncnn23)[C@H](O)[C@@H]1O)Oc1ccccc1 [Remdesivir, remdesivir, reference compound] |  |  |  |  |  |  |  |  |  |  | 19.8 | 21.9 | 25.2 | 38.1 |
